Measured values published in patent US4161520A, “Method of treating hypertension” (priority 1976, dated 1979).

Experiments:
Type in all cases: in vivo
DOCA-Na. rat = assay: Comparative antihypertensive activity of polyether ionophores in the DOCA-Na rat (Example 3, Table III); conditions: oral, five-day period, daily dose 1/100 of oral LD50 up to 10 mg/kg/day
Method: Using bromolasalocid as a standard for comparison, a number of polyether ionophores were tested for antihypertensive activity. The tests were conducted utilizing single oral dosages in the DOCA-Na. rat over a five-day period with dosing discontinued thereafter. Blood pressure monitoring was carried out for the five-day period and daily after cessation of dosing until blood pressure returned to pre-drug levels. […] The daily dosage was calculated by using one-one hundredth (1/100) of the oral (per os) toxicity (LD50) up to a maximum of 10 mg/kg/day. The antihypertensive activity expressed as AHR (Subacute antihypertensive ratio) was calculated using bromolasalocid as the standard reference (Table III).

DOCA Na rat = assay: Low dose chronic administration in the DOCA Na rat (Example 4, Table IV); conditions: for Stroke Volume Index, mean value: control 4.82±0.31; for Pulse pressure, mean value: control 62.5±5.3; for Arterial blood pressure, mean value: control 175.0±3.8; for Arterial blood pressure, % Δ / Pulse pressure, % Δ / Stroke Volume Index, % Δ: vs control
Method: A test was conducted for antihypertensive activity in the DOCA Na rat utilizing low dose chronic administration.
DOCA Na male rats weighing 170 to 210 grams are used in the test. DOCA Na hypertension is induced by unilateral nephrectomy followed by subcutaneous implantation of a 25 mg. desoxycorticosterone (DOCA) pellet. Animals are placed in individual cages receiving 0.9% sodium chloride solution to drink and rat chow diet ad libitum. Two weeks are allowed to elapse from the time of surgery for development of hypertension, i.e., systolic blood pressure of at least 150 mmHg.
Mean blood pressure and heart rate in the rats dosed at 5 mg/kg/day, 1 mg/kg/day, 0.1 mg/kg/day and as those used as controls are measured directly by placing a polyethylene catheter in a femoral artery and thereafter measuring the blood pressure by a Stathem Pressure Transducer. Control animals and drug dosed subjects are measured side by side. Direct readings were taken when the animal model began to show signs of inherent deterioration.
(§1) The experimental results are represented as absolute values. Drug-related alterations in mean blood pressure are expressed as percentage change by comparing control absolute values with drug absolute values. Compounds are considered active when about a 15% or greater reduction in blood pressure is obtained. However, the reduction in blood pressure must show mathematical significance ([…]).
A derivative of the polyether ionophore, laslaocid, i.e., the bromo derivative of lasalocid, was tested in the above screen. The compound was administered in a food admix on a daily basis.

[1] = Oral (per os) toxicity (LD50); conditions: in vivo, read-out: LD50
DOCA Na hypertensive rat = assay: Antihypertensive activity, subacute oral dosing in the DOCA Na rat (Example 1, Table I)
Method: A test was conducted for antihypertensive activity in the DOCA Na rat. DOCA rats weighing 170 to 210 grams are used in the test. DOCA Na hypertension is induced by unilateral nephrectomy followed by subcutaneous implantation of a 25 mg. desoxycorticosterone (DOCA) pellet. Animals are placed in individual cages receiving 0.9% sodium chloride solution to drink and rat chow diet ad libitum. Two weeks are allowed to elapse from the time of surgery for development of hypertension, i.e., systolic blood pressure of at least 150 mmHg.
Systolic blood pressure and heart rate are measured indirectly from the tail pressure pulse of unanesthetized rats, using a pneumatic pulse transducer. Control readings are taken prior to drug and post drug readings are taken at 1, 3, 6 and 24 hours.
as §1, with “systolic” for “mean”, “with post” for “with”
A derivative of the polyether ionophore, lasalocid, i.e., the bromo derivative of lasalocid, was tested in the above screen. The compound was orally administered for a five-day period by intubation and thereafter dosing was discontinued but blood pressure monitoring was continued. The following table illustrates the results obtained utilizing bromolasalocid as the test drug.

[2] = 0.1 mg/kg/day in food admix, at 24 Days
[3] = 1 mg/kg/day in food admix, at 28 Days
[4] = 5 mg/kg/day in food admix, at 11 Days

## CC[C@@H](C(=O)[C@@H](C)[C@@H](O)[C@H](C)CCc1c(Br)cc(C)c(O)c1C(=O)O)[C@H]1O[C@](CC)([C@H]2CC[C@](O)(CC)[C@H](C)O2)C[C@@H]1C [bromolasalocid]
DOCA-Na. rat
  ONSET TO MAX. RESPONSE: 4 days
DOCA-Na. rat; monitored until return to pre-drug levels
  DURATION OF EFFECT: 15 days
DOCA Na rat; [2]
  Stroke Volume Index, mean value: 4.03±0.17
  Pulse pressure, mean value: 41.1±7.4
  Arterial blood pressure, mean value: 132.4±16.0
  Arterial blood pressure, % Δ: -24.34%
  Pulse pressure, % Δ: -34.24%
  Stroke Volume Index, % Δ: -16.39%
DOCA Na rat; [3]
  Stroke Volume Index, mean value: 5.86±.31
  Pulse pressure, mean value: 45±3.5
  Arterial blood pressure, mean value: 140.1±16
  Arterial blood pressure, % Δ: -19.94%
  Pulse pressure, % Δ: -28.00%
  Stroke Volume Index, % Δ: 21.58%
DOCA Na rat; [4]
  Stroke Volume Index, mean value: 4.96±0.61
  Pulse pressure, mean value: 47.4±7.3
  Arterial blood pressure, mean value: 140.0±12.6
  Arterial blood pressure, % Δ: -20.00%
  Pulse pressure, % Δ: -24.16%
  Stroke Volume Index, % Δ: 2.90%
DOCA Na rat; chronic administration
  blood pressure (in words): lowered
  pulse pressure (in words): lowered
  pump performance (in words): competent
  stroke volume index (in words): no significant alteration has occurred
[1]
  LD50: 1200 mg/kg
DOCA Na hypertensive rat; 5 mg/kg per day oral for 5 days, Day 2 am, pre-drug 209
  Average Systolic Blood Pressure Per Group: 206 mmHg
DOCA Na hypertensive rat; 5 mg/kg per day oral for 5 days, Day 2 pm, pre-drug 209
  Average Systolic Blood Pressure Per Group: 194 mmHg
DOCA Na hypertensive rat; 5 mg/kg per day oral for 5 days, Day 3 pm, pre-drug 209
  Average Systolic Blood Pressure Per Group: 191 mmHg
DOCA Na hypertensive rat; 5 mg/kg per day oral for 5 days, Day 4 am, pre-drug 209
  Average Systolic Blood Pressure Per Group: 206 mmHg
DOCA Na hypertensive rat; 5 mg/kg per day oral for 5 days, Day 5 am, pre-drug 209
  Average Systolic Blood Pressure Per Group: 197 mmHg
DOCA Na hypertensive rat; 5 mg/kg per day oral for 5 days, Day 5 pm, pre-drug 209
  Average Systolic Blood Pressure Per Group: 196 mmHg
DOCA Na hypertensive rat; 10 mg/kg per day oral for 5 days, Day 1 pm, pre-drug 217, p<.05
  Average Systolic Blood Pressure Per Group: 192 mmHg
DOCA Na hypertensive rat; 10 mg/kg per day oral for 5 days, Day 2 am, pre-drug 217, p<.05
  Average Systolic Blood Pressure Per Group: 181 mmHg
DOCA Na hypertensive rat; 10 mg/kg per day oral for 5 days, Day 2 pm, pre-drug 217, p<.05
  Average Systolic Blood Pressure Per Group: 166 mmHg
DOCA Na hypertensive rat; 10 mg/kg per day oral for 5 days, Day 3 am, pre-drug 217, p<.05
  Average Systolic Blood Pressure Per Group: 171 mmHg
DOCA Na hypertensive rat; 10 mg/kg per day oral for 5 days, Day 3 pm, pre-drug 217, p<.05
  Average Systolic Blood Pressure Per Group: 163 mmHg
DOCA Na hypertensive rat; 10 mg/kg per day oral for 5 days, Day 4 am, pre-drug 217, p<.05
  Average Systolic Blood Pressure Per Group: 173 mmHg
DOCA Na hypertensive rat; 10 mg/kg per day oral for 5 days, Day 4 pm, pre-drug 217, p<.05
  Average Systolic Blood Pressure Per Group: 157 mmHg
DOCA Na hypertensive rat; 10 mg/kg per day oral for 5 days, Day 5 pm, pre-drug 217, p<.05
  Average Systolic Blood Pressure Per Group: 166 mmHg
DOCA Na hypertensive rat; after oral dosing for the first five consecutive days
  Period for which blood pressure remained below control after drug dosing: 10 days
